Data set [1] concerns Apis mellifera. The conditions noted are these: acute, mortality.
The test system of data set [2] is Bibionidae. The following applies: chronic/long-term; duration: 28 days; development.
Data set [3] concerns Canidae. The conditions noted are these: oral, Dog Other.
The subject of data set [4] is Colinus virginianus. The conditions noted are these: acute; oral; mortality.
Data set [5] has as its system Coturnix japonica.
Data set [6] has as its system Daphnia magna. The conditions noted are these: chronic/long-term; duration: 21 days; reproduction.
Data set [7] has as its system Folsomia candida. The conditions noted are these: chronic/long-term; duration: 28 days.
Data set [8] concerns Hypoaspis aculeifer. The conditions noted are these: chronic/long-term; duration: 14 days.
In data set [9] the test system is Oncorhynchus mykiss. The conditions noted are these: chronic/long-term; duration: 21 days; growth.
Data set [10] deals with Rattus norvegicus.
Data set [11] concerns Tagia sp.
Data set [12] has as its system Aphidius rhopalosiphi. Briefly: LR50; higher = less toxic. The conditions noted are these: not reported; mortality.
Data set [13] concerns Typhlodromus pyri. Briefly: LR50; higher = less toxic. The conditions noted are these: not reported; mortality.

The values below come from EPA's ToxValDB 9.5 (doi:10.2903/j.efsa.2015.4206).

By NOAEL is commonly meant the highest tested level that showed no adverse finding.

Take `CC(C)c1ccc(NC(=O)N(C)C)cc1` [Isoproturon]: the LD50 in data set [1] (dermal) is over 100 µg/piece; in data set [1] (oral, unspecified) it was over 99.2 µg/piece; in [4], 1400 mg/kg-day; in [10] (acute, mortality), 1830 mg/kg-day. Moreover, the NOEC is 0.344 mg/L in data set [2]; 0.12 mg/L in data set [6]; 24.3 mg/kg in [7]; over 459 mg/kg in data set [8]; 1 mg/L in data set [9]; 10 mg/kg-day in data set [10] (chronic). For the same molecule, the NOEC in data set [11] (chronic/long-term, duration: 8 weeks) came out at 14 mg/kg. For the same molecule, the NOAEL in data set [3] (short-term, histopathology: nonneoplastic) was found to be 3.2 mg/kg-day; in data set [3] (subchronic, duration: 90 days, hematological), 10 mg/kg-day; in data set [5] (reproduction developmental, reproduction), 12 mg/kg-day; in [10] (chronic, duration: 2 years, histopathology: neoplastic) it was 3.1 mg/kg-day. For the same molecule, the LC50 was over 5000 mg/kg in data set [5] (acute, oral, diet, mortality) and over 500 mg/kg in data set [11] (acute, duration: 14 days, mortality). Further, the LR50 in data set [12] and in data set [13] was over 2500 g/ha in each case.
